Laboratory results from US20260137698A1, “CYCLIN-DEPENDENT KINASE 7 INHIBITORS” (JOINT STOCK COMPANY «BIOCAD», priority 2022, published 2026).
Where two headings read alike, the source gives them in different places.

Legend:
CDK7/Cyclin H/MNAT1 = CDK7/Cyclin H/MNAT1 (Homo sapiens, UniProt P50613); assay: Inhibition of CDK7/Cyclin H/MNAT1 kinase activity (ADP-Glo); format: biochemical
Procedure, shortened: (§1)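 Kinase preincubated with compound (11 points, 4-fold steps from 50 μM) for 10 minutes at 25° C. in kinase buffer A with DTT, then reacted 40-60 minutes at 25° C. with ATP and CDKtide, Histone H1 or PDKtide substrate. ADP formation read by ADP-Glo luminescence; IC50 from four-parameter fit.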

[1] = General cytotoxicity on primary differentiated HepaRG cells (72 h); format: cell-based; conditions: human, general toxicity, mean value from several measurements
Procedure, shortened: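 Differentiated HepaRG cells, maintained a week in basal hepatic medium with maintenance/metabolism supplement, were plated at 25×10^3 cells/well overnight. Compounds (200 μM to 0.2 nM) were added for 72 h before viability readout.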

CDK2/Cyclin A = CDK2/Cyclin A (Homo sapiens, UniProt P24941); assay: Inhibition of CDK2/Cyclin A kinase activity (ADP-Glo); format: biochemical
Procedure, shortened: as §1

[2] = system: NCl-H82 (small cell lung cancer); assay: Antiproliferative assay on NCl-H82 cells (AlamarBlue, 120 h); format: cell-based; conditions: mean value from several measurements
CDK9/Cyclin K = CDK9/Cyclin K (Homo sapiens, UniProt P50750); assay: Inhibition of CDK9/Cyclin K kinase activity (ADP-Glo); format: biochemical
CDK9/Cyclin K, sequence (P50750 whole entry): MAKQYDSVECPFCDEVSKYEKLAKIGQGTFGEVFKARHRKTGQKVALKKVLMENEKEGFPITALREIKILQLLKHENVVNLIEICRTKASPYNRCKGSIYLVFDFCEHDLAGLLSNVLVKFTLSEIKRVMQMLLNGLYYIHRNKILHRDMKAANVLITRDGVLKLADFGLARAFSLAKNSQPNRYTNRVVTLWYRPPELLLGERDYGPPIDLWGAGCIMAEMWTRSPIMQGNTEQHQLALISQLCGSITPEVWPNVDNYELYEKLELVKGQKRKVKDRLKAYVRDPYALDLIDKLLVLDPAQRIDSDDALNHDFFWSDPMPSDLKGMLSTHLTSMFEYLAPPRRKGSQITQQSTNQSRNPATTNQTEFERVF
CDK9/Cyclin K, sequence (O75909 whole entry partner): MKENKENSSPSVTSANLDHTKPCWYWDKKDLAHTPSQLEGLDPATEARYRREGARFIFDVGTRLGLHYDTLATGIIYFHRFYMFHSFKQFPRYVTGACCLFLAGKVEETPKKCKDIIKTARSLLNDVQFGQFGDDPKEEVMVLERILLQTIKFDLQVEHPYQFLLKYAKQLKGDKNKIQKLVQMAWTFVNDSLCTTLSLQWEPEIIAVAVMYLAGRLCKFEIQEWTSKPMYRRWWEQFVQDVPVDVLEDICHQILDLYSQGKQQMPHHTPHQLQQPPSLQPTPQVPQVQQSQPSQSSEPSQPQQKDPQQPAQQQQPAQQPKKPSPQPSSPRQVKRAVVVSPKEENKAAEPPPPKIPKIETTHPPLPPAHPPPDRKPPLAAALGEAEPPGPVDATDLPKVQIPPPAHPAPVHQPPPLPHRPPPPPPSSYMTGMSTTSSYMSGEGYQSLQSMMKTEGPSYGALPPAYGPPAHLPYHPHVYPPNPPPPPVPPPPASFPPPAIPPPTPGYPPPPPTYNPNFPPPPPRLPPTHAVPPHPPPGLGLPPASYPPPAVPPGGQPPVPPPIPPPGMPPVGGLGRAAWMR
Procedure, shortened: as §1

[3] = system: MDA-MB-468 (triple negative breast cancer); assay: Antiproliferative assay on MDA-MB-468 cells (AlamarBlue, 96 h); format: cell-based; conditions: Homo sapiens, mean value from several measurements
[4] = mean of multiple measurement series, ATP 10 μM, read-out: CDK7/Cyclin H/MNAT1 IC50
[5] = mean value from several measurements, read-out: IC50 CDK7/Cyclin H/MNAT
[6] = mean of multiple measurement series, ATP 50 μM, read-out: CDK2/Cyclin A IC50
[7] = mean value from several measurements, read-out: IC50 CDK2/Cyclin A
[8] = mean of multiple measurement series, ATP 50 μM, read-out: CDK9/Cyclin K IC50
[9] = mean value from several measurements, read-out: IC50 CDK9/Cyclin K

CDK7/Cyclin H/MNAT1, sequence (P50613 whole entry): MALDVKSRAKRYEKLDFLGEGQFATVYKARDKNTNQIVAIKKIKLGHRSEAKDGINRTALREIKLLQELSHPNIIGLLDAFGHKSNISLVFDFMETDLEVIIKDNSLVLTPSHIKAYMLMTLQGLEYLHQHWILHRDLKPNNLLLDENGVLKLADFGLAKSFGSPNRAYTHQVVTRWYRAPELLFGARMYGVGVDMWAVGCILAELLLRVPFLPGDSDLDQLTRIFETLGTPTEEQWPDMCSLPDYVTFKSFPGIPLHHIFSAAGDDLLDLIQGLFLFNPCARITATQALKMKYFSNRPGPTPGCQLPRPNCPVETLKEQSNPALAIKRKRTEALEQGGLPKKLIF
CDK7/Cyclin H/MNAT1, sequence (P51946 whole entry partner): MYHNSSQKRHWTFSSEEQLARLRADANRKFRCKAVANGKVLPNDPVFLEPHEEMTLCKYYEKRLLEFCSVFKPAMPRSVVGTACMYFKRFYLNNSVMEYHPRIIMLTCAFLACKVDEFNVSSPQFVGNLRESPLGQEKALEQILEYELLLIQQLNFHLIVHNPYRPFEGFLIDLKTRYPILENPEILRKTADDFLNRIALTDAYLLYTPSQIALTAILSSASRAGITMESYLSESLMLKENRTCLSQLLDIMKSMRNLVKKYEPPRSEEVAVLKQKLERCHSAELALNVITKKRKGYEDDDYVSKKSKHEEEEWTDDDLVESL
CDK7/Cyclin H/MNAT1, sequence (P51948 whole entry partner): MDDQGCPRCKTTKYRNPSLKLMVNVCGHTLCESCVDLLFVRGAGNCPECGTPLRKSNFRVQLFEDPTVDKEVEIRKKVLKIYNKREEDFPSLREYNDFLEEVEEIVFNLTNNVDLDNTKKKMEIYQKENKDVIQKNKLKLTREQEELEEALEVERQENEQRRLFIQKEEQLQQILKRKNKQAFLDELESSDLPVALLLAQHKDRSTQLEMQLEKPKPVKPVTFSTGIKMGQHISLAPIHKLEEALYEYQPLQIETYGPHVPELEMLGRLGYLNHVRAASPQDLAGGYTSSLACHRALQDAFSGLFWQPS

SMILES | IC50 (CDK7/Cyclin H/MNAT1; [4]) [µM] | IC50 (CDK7/Cyclin H/MNAT1; [5]) [µM] | IC50 (CDK2/Cyclin A; [6]) [µM] | IC50 (CDK2/Cyclin A; [7]) [µM] | IC50 [2] [µM] | IC50 (CDK9/Cyclin K; [8]) [µM] | IC50 (CDK9/Cyclin K; [9]) [µM] | IC50 [3] [µM] | CC50 at 72 h [1] [µM]
CN1CCCc2c(-c3nc(N[C@H]4CCCNC4)ncc3C(F)(F)F)c[nH]c2C1=O [CDK7_953, 7-methyl-3-(2-{[(3S)-piperidin-3-yl]amino}-5-(trifluoromethyl)py-rimidin-4-yl)-1H,4H,5H,6H,7H, 8H-pyrrolo[2,3-c]azepin-8-one] | < 0.005 | < 0.005 | 5.83 | > 0.2 | < 0.01 | 0.06 | 0.05 to 0.2 | < 0.01 | 0.5 to 2
O=C1c2[nH]cc(-c3nc(NC4CCCNC4)ncc3C(F)(F)F)c2CCCN1c1nccs1 (stereo not shown) [CDK7_1172] | – | < 0.005 | – | > 0.2 | 0.01 to 0.1 | – | > 0.2 | 0.01 to 0.1 | > 2
O=C1c2[nH]cc(-c3nc(N[C@H]4CCCNC4)ncc3C(F)(F)F)c2CCCN1c1ccccn1 [CDK7_1176, 3-(2-{[(3S)-piperidin-3-yl]amino}-5-(trifluoromethyl)py-rimidin-4-yl)-7-(pyridin-2-yl)-1H,4H,5H,6H,7H, 8H-pyrrolo[2,3-c]azepin-8-one] | – | 0.005 to 0.05 | – | – | – | – | – | 0.1 to 1 | > 2
O=C1c2[nH]cc(-c3nc(NC4CCCNC4)ncc3C(F)(F)F)c2CCCN1C1CC1 (stereo not shown) [CDK7_1188] | – | < 0.005 | – | > 0.2 | < 0.01 | – | > 0.2 | < 0.01 | > 2
CC1CCc2c(-c3nc(N[C@H]4CCCNC4)ncc3C(F)(F)F)c[nH]c2C(=O)N1C (stereo partly drawn) [CDK7_1254, 6,7-dimethyl-3-(2-{[(3S)-piperidin-3-yl]amino}-5-(trifluoromethyl)py-rimidin-4-yl)-1H,4H,5H,6H,7H, 8H-pyrrolo[2,3-c]azepin-8-one] | – | < 0.005 | – | > 0.2 | 0.01 to 0.1 | – | > 0.2 | 0.01 to 0.1 | > 2
O=C1c2[nH]cc(-c3nc(N[C@H]4CCC5(CC5)NC4)ncc3C(F)(F)F)c2CCCN1C1CC1 [CDK7_1276, 3-(2-{[(6S)-4-azaspiro[2.5]octan-6-yl]amino}-5-(trifluoromethyl)py-rimidin-4-yl)-7-cyclopropyl-1H,4H,5H,6H,7H, 8H-pyrrolo[2,3-c]azepin-8-one] | < 0.005 | < 0.005 | 6.22 | > 0.2 | < 0.01 | 0.296 | > 0.2 | < 0.01 | > 2
CC(C)N1CCCc2c(-c3nc(N[C@H]4CCC5(CC5)NC4)ncc3C(F)(F)F)c[nH]c2C1=O [CDK7_1277, 3-(2-{[(6S)-4-azaspiro[2.5]octan-6-yl]amino}-5-(trifluoromethyl)py-rimidin-4-yl)-7-(propan-2-yl)-1H,4H,5H,6H,7H, 8H-pyrrolo[2,3-c]azepin-8-one] | < 0.005 | < 0.005 | 14.3 | > 0.2 | < 0.01 | 0.442 | > 0.2 | < 0.01 | > 2

The next lines start with results.

IC50 (CDK7/Cyclin H/MNAT1; [4]) [µM] | IC50 (CDK7/Cyclin H/MNAT1; [5]) [µM] | IC50 (CDK2/Cyclin A; [6]) [µM] | IC50 (CDK2/Cyclin A; [7]) [µM] | IC50 [2] [µM] | IC50 (CDK9/Cyclin K; [8]) [µM] | IC50 (CDK9/Cyclin K; [9]) [µM] | IC50 [3] [µM] | SMILES | CC50 at 72 h [1] [µM]
– | 0.005 to 0.05 | – | > 0.2 | > 1 | – | > 0.2 | 0.1 to 1 | Cn1cc(N2CCCc3c(-c4nc(N[C@H]5CCCNC5)ncc4C(F)(F)F)c[nH]c3C2=O)cn1 [CDK7_955, 7-(1-methyl-1H-pyrazol-4-yl)-3-(2-{[(3S)-piperidin-3-yl]amino}-5-(trifluoromethyl)py-rimidin-4-yl)-1H,4H,5H,6H,7H, 8H-pyrrolo[2,3-c]azepin-8-one] | > 2
< 0.005 | < 0.005 | 5.26 | > 0.2 | < 0.01 | 0.106 | 0.05 to 0.2 | < 0.01 | Cn1cc(-n2ccc3c(-c4nc(N[C@H]5CCCNC5)ncc4C(F)(F)F)c[nH]c3c2=O)cn1 [CDK7_959, 6-(1-methyl-1H-pyrazol-4-yl)-3-(2-{[(3S)-piperidin-3-yl]amino}-5-(trifluoromethyl)py-rimidin-4-yl)-1H,6H,7H-pyrrolo[2,3-c]pyridin-7-one] | > 2
< 0.005 | < 0.005 | 3.7 | > 0.2 | < 0.01 | 0.069 | 0.05 to 0.2 | < 0.01 | O=c1c2[nH]cc(-c3nc(N[C@H]4CCCNC4)ncc3C(F)(F)F)c2ccn1Cc1ccccc1 [CDK7_961, 6-benzyl-3-(2-{[(3S)-piperidin-3-yl]amino}-5-(trifluoromethyl)py-rimidin-4-yl)-1H,6H,7H-pyrrolo[2,3-c]pyridin-7-one] | 0.1 to 0.5
– | 0.005 to 0.05 | – | – | – | – | > 0.2 | 0.1 to 1 | Cn1cc(N2CCCc3c(-c4nc(N[C@H]5CCC(C)(C)NC5)ncc4C(F)(F)F)c[nH]c3C2=O)cn1 [CDK7_1122, 3-(2-{[(3S)-6,6-dimethylpiperidin-3-yl]amino}-5-(trifluoromethyl)py-rimidin-4-yl)-7-(1-methyl-1H-pyrazol-4-yl)-1H,4H,5H,6H,7H, 8H-pyrrolo[2,3-c]azepin-8-one] | > 2
< 0.005 | < 0.005 | 35.2 | > 0.2 | 0.01 to 0.1 | 0.265 | > 0.2 | < 0.01 | Cn1cc(-n2ccc3c(-c4nc(N[C@H]5CCC(C)(C)NC5)ncc4C(F)(F)F)c[nH]c3c2=O)cn1 [CDK7_1123, 3-(2-{[(3S)-6,6-dimethylpiperidin-3-yl]amino}-5-(trifluoromethyl)py-rimidin-4-yl)-6-(1-methyl-1H-pyrazol-4-yl)-1H,6H,7H-pyrrolo[2,3-c]pyridin-7-one] | > 2
< 0.005 | < 0.005 | 15.7 | > 0.2 | < 0.01 | 0.182 | > 0.2 | < 0.01 | CN1CCCc2c(-c3nc(N[C@H]4CCC(C)(C)NC4)ncc3C(F)(F)F)c[nH]c2C1=O [CDK7_1187, 3-(2-{[(3S)-6,6-dimethylpiperidin-3-yl]amino}-5-(trifluoromethyl)py-rimidin-4-yl)-7-methyl-1H,4H,5H,6H,7H, 8H-pyrrolo[2,3-c]azepin-8-one] | > 2
< 0.005 | < 0.005 | 13.9 | > 0.2 | 0.01 to 0.1 | 0.441 | > 0.2 | 0.01 to 0.1 | CC1(C)CC[C@H](Nc2ncc(C(F)(F)F)c(-c3c[nH]c4c3CCCN(C3CC3)C4=O)n2)CN1 [CDK7_1225, 7-cyclopropyl-3-(2-{[(3S)-6,6-dimethylpiperidin-3-yl]amino}-5-(trifluoromethyl)py-rimidin-4-yl)-1H,4H,5H,6H,7H, 8H-pyrrolo[2,3-c]azepin-8-one] | > 2
– | < 0.005 | – | > 0.2 | 0.01 to 0.1 | – | > 0.2 | 0.01 to 0.1 | CC1(C)CC[C@H](Nc2ncc(C(F)(F)F)c(-c3c[nH]c4c3CCCN(CC3CC3)C4=O)n2)CN1 [CDK7_1227, 7-(cyclopropylmeth-yl)-3-(2-{[(3S)-6,6-dimethylpiperidin-3-yl]amino}-5-(trifluoromethyl)py-rimidin-4-yl)-1H,4H,5H,6H,7H, 8H-pyrrolo[2,3-c]azepin-8-one] | > 2
< 0.005 | < 0.005 | 22.9 | > 0.2 | 0.01 to 0.1 | 0.485 | > 0.2 | 0.01 to 0.1 | CC(C)N1CCCc2c(-c3nc(N[C@H]4CCC(C)(C)NC4)ncc3C(F)(F)F)c[nH]c2C1=O [CDK7_1229, 3-(2-{[(3S)-6,6-dimethylpiperidin-3-yl]amino}-5-(trifluoromethyl)py-rimidin-4-yl)-7-(propan-2-yl)-1H,4H,5H,6H,7H, 8H-pyrrolo[2,3-c]azepin-8-one] | > 2
– | < 0.005 | – | > 0.2 | 0.01 to 0.1 | – | > 0.2 | 0.01 to 0.1 | CCN1CCCc2c(-c3nc(N[C@H]4CCC(C)(C)NC4)ncc3C(F)(F)F)c[nH]c2C1=O [CDK7_1259, 3-(2-{[(3S)-6,6-dimethylpiperidin-3-yl]amino}-5-(trifluoromethyl)py-rimidin-4-yl)-7-ethyl-1H,4H,5H,6H,7H, 8H-pyrrolo[2,3-c]azepin-8-one] | > 2
